Results reported in PMC4255499 (Frontiers in Physiology, 2014).

Target: T1, α1-microglobulin (A1M) (Homo sapiens, UniProt P02760)
T1 construct: gene AMBP; Recombinant human A1M with an N-terminal His8-tag (tgA1M)
T1 sequence (P02760 20-203): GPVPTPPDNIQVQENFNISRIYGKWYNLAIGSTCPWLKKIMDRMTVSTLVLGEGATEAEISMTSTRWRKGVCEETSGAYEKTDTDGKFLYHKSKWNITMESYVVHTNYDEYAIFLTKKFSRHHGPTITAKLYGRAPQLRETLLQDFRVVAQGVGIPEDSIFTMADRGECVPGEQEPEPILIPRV
Assay: SPR (tgA1M captured by anti-His antibody, […] binding model); also UV/Vis titration, induced CD, native PAGE shift

Question: `C=CC1=C(C)C2=Cc3c(C=C)c(C)c4[n]3[Fe][n]3c(c(C)c(CCC(=O)O)c3=CC3=NC(=C4)C(C)=C3CCC(=O)O)=CC1=N2` [heme] was tested. Which Kd did it give?
Answer: Its Kd is 7.02 µM.
